Experimental data published in patent US20210395249A1, “NEW ALKOXYAMINOPYRIDINE DERIVATIVES FOR TREATING PAIN AND PAIN RELATED CONDITIONS” (ESTEVE PHARMACEUTICALS, S.A., priority 2018, published 2021).

Tests used:
[1] = target: Human α2δ-1 subunit of Cav2.2 calcium channel (Homo sapiens, UniProt P54289); assay: Binding assay to human α2δ-1 subunit of Cav2.2 calcium channel ([3H]-Gabapentin); settings: human α2δ-1 enriched membranes, [3H]-Gabapentin 15 nM; read-out: Ki(nM) alpha2delta Hum
Protocol: Binding Assay to Human α2δ-1 Subunit of Cav2.2 Calcium Channel
Human α2δ-1 enriched membranes (2.5 μg) were incubated with 15 nM of radiolabeled [3H]-Gabapentin in assay buffer containing Hepes-KOH 10 mM, pH 7.4. NSB (non-specific binding) was measured by adding 10 μM pregabalin. The binding of the test compound was measured at either one concentration (% inhibition at 1 or 10 μM) or five different concentrations to determine affinity values (Ki). After 60 min incubation at 27° C., binding reaction was terminated by filtering through Multiscreen GF/C (Millipore) presoaked in 0.5% polyethyleneimine in Vacuum Manifold Station, followed by 3 washes with ice-cold filtration buffer containing 50 mM Tris-HCl, pH 7.4. Filter plates were dried at 60° C. for 1 hour and 30 μl of scintillation cocktail were added to each well before radioactivity reading. Readings were performed in a Trilux 1460 Microbeta radioactive counter (Perkin Elmer).

[2] = target: Human norepinephrine transporter (NET) (Homo sapiens, UniProt P23975); assay: Binding assay to human norepinephrine transporter (NET) ([3H]-Nisoxetin); settings: human NET enriched membranes, [3H]-Nisoxetin 5 nM; read-out: Ki(nM) NET Hum
Human norepinephrine transporter (NET), sequence (P23975 whole entry): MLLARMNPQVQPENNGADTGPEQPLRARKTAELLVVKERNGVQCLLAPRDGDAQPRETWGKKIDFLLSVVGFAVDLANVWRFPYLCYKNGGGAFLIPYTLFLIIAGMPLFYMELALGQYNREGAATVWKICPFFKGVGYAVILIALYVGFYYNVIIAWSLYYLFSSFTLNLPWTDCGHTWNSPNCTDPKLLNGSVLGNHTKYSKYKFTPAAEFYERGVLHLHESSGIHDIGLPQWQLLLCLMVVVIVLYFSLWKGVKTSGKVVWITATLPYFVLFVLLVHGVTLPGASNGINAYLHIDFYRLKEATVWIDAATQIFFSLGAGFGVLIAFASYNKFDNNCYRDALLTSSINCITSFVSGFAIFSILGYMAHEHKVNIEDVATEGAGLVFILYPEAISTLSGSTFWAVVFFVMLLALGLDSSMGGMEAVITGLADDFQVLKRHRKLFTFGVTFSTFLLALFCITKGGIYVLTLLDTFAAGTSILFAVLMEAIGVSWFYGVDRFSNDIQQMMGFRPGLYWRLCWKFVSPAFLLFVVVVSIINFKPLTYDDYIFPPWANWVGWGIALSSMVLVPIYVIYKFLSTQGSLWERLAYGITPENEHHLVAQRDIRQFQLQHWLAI
Protocol: Binding Assay to Human Norepinephrine Transporter (NET)
Human norepinephrine transporter (NET) enriched membranes (5 μg) were incubated with 5 nM of radiolabeled [3H]-Nisoxetin in assay buffer containing 50 mM Tris-HCl, 120 mM NaCl, 5 mM KCl, pH 7.4. NSB (non specific binding) was measured by adding 10 μM of desipramine. The binding of the test compound was measured at either one concentration (% inhibition at 1 or 10 μM) or five different concentrations to determine affinity values (Ki). After 60 min incubation at 4° C., binding reaction was terminated by filtering through Multiscreen GF/C (Millipore) presoaked in 0.5% polyethyleneimine in Vacuum Manifold Station, followed by 3 washes with ice-cold filtration buffer containing 50 mM Tris-HCl, 0.9% NaCl, pH 7.4. Filter plates were dried at 60° C. for 1 hour and 30 μl of scintillation cocktail were added to each well before radioactivity reading. Readings were performed in a Trilux 1450 Microbeta radioactive counter (Perkin Elmer).

Human α2δ-1 subunit of Cav2.2 calcium channel, sequence (P54289 25-1103): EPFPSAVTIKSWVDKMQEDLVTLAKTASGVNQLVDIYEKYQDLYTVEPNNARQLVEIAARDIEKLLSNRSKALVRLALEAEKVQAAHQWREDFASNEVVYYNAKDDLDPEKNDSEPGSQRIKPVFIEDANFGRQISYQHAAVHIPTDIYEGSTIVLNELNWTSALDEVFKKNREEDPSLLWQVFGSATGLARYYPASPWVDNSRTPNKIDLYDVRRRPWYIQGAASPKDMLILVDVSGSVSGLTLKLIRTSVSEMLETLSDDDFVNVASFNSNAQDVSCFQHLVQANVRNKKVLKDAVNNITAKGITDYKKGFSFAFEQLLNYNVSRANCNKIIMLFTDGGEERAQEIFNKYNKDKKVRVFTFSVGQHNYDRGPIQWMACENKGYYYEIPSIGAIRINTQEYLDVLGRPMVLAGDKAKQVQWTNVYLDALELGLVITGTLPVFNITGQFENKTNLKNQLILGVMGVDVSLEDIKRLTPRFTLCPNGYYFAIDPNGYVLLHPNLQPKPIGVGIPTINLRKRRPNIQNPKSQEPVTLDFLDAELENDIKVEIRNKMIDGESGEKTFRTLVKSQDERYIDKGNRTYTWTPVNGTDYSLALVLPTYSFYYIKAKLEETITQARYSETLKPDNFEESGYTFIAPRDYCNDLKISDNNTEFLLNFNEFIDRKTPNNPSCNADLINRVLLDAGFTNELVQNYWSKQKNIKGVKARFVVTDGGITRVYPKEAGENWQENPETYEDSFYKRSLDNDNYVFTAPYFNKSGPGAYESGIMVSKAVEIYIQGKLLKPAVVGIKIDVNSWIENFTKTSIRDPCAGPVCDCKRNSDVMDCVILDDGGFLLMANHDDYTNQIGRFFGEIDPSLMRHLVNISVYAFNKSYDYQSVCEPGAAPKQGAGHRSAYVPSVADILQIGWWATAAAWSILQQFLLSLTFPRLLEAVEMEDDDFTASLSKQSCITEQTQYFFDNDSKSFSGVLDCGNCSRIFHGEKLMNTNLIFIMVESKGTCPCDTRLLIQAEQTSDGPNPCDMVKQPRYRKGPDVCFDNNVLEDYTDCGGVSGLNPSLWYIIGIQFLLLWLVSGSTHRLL

Ki [1] [nM]	Ki [2] [nM]	Structure (SMILES)
< 100	< 100	CNCC[C@H](Oc1cnc(CN2CCN(C)c3ncccc3C2=O)c(F)c1)c1ccccc1 [Example 1, (S)-4-((3-Fluoro-5-(3-(methylamino)-1-phenylpropoxy)pyridin-2-yl)methyl)-1-methyl-1,2,3,4-tetrahydro-5H-pyrido[2,3-e][1,4]diazepin-5-one]
100 to 500	< 100	CNCC[C@H](Oc1cnc(CN2CCN(C)c3ncc(F)cc3C2=O)c(F)c1)c1cccc(F)c1 [Example 2, (S)-7-fluoro-4-((3-fluoro-5-(1-(3-fluorophenyl)-3-(methylamino)propoxy)pyridin-2-yl)methyl)-1-methyl-1,2,3,4-tetrahydro-5H-pyrido[2,3-e][1,4]diazepin-5-one]
< 100	< 100	CNCC[C@H](Oc1cnc(CN2CCN(C)c3nc(N)ccc3C2=O)c(F)c1)c1cccc(F)c1 [Example 3, (S)-8-amino-4-((3-fluoro-5-(1-(3-fluorophenyl)-3-(methylamino)propoxy)pyridin-2-yl)methyl)-1-methyl-1,2,3,4-tetrahydro-5H-pyrido[2,3-e][1,4]diazepin-5-one]
< 100	< 100	CCNc1ccc2c(n1)N(C)CCN(Cc1ncc(O[C@@H](CCNC)c3cccc(F)c3)cc1F)C2=O [Example 4, (S)-8-(ethylamino)-4-((3-fluoro-5-(1-(3-fluorophenyl)-3-(methylamino)propoxy)pyridin-2-yl)methyl)-1-methyl-1,2,3,4-tetrahydro-5H-pyrido[2,3-e][1,4]diazepin-5-one]
< 100	< 100	CNCC[C@H](Oc1cnc(CN2CCN(C)c3ncccc3C2=O)c(Cl)c1)c1cccc(F)c1 [Example 5, (S)-4-((3-chloro-5-(1-(3-fluorophenyl)-3-(methylamino)propoxy)pyridin-2-yl)methyl)-1-methyl-1,2,3,4-tetrahydro-5H-pyrido[2,3-e][1,4]diazapin-5-one]
< 100	< 100	CNCC[C@H](Oc1cnc(CN2CCN(C)c3cnc(OC)cc3C2=O)c(F)c1)c1cccc(F)c1 [Example 6, (S)-4-((3-fluoro-5-(1-(3-fluorophenyl)-3-(methylamino)propoxy)pyridin-2-yl)methyl)-7-methoxy-1-methyl-1,2,3,4-tetrahydro-5H-pyrido[3,4-e][1,4]diazepin-5-one]
100 to 500	< 100	CNCC[C@H](Oc1cnc(CN2CCN(C)c3ncccc3C2=O)c(F)c1)c1cccc(F)c1 [Example 7, (S)-4-((3-fluoro-5-(1-(3-fluorophenyl)-3-(methylamino)propoxy)pyridin-2-yl)methyl)-1-methyl-1,2,3,4-tetrahydro-5H-pyrido[2,3-e][1,4]diazepin-5-one]
100 to 500	< 100	CNCC[C@H](Oc1cnc(CN2CCN(C)c3ncccc3C2=O)c(F)c1)c1cccs1 [Example 8, (S)-4-((3-Fluoro-5-(3-(methylamino)-1-(thiophen-2-yl)propoxy)pyridin-2-yl)methyl)-1-methyl-1,2,3,4-tetrahydro-5H-pyrido[2,3-e][1,4]diazepin-5-one]
